22 molecules from ChEMBL document CHEMBL3301361, “Experimental in vitro DMPK and physicochemical data on a set of publicly disclosed compounds” can be followed below.

Some results are limits rather than exact numbers.

One series can be described thus: physchem. As to conditions: octan-1-ol/water, pH 7.4, LogD7.4.
A short description of series [1]: in vitro. Conditions: human, plasma, PPB.
Series [2] is described as follows: in vitro. As to conditions: human.
Series [3] can be described thus: in vitro. Conditions: hepatocytes.

A word on the logD: it is lipophilicity at a set pH, counting ionised and neutral species. As usually defined, the fraction unbound is the share of the substance not bound to proteins or other matrix. Read a high fraction unbound as weak binding. A word on the microsomal CLint: it is the capacity of the preparation to metabolise the compound, expressed as a volume cleared per time. In general, hepatocyte CLint refers to the capacity of the preparation to metabolise the compound, expressed as a volume cleared per time. A lower hepatocyte CLint goes with greater metabolic stability. Molecule `O=C(Nc1cc(-c2ccncc2)c[nH]c1=O)[C@H](Cc1ccccc1)NC1(c2ccccn2)CC1` registered a logD in “physchem” of 3.44. This molecule had a fraction unbound at 5 h in the series “in vitro [1]” of 0.0287. The molecule also gave a microsomal CLint in the series “in vitro [2]” (liver microsomes) of 19.1 µL/min/mg. This molecule had a hepatocyte CLint in “in vitro [3]” of more than 150 µL/min/1e6 cells.
Regarding `CC(C)N(CCCNC(=O)Nc1ccc(C(C)(C)C)cc1)C[C@H]1O[C@@H](n2ccc3c(N)ncnc32)[C@H](O)[C@@H]1O`, the logD in “physchem” came to 2.4. The fraction unbound at 5 h in “in vitro [1]” is 0.201. In addition, the microsomal CLint in “in vitro [2]” (liver microsomes) is more than 150 µL/min/mg. In the series “in vitro [3]”, this molecule yielded a hepatocyte CLint of 33.9 µL/min/1e6 cells.
Taken in the same sequence, the figures for `CC(C)c1ccc(NC(=O)NCCCSC[C@H]2O[C@@H](n3cnc4c(N)ncnc43)[C@H](O)[C@@H]2O)cc1` were 2.5, 0.0784, 126 µL/min/mg and 110 µL/min/1e6 cells.
Regarding `Nc1ncnc2c1ncn2[C@@H]1O[C@H](CSCCCNC(=O)Nc2ccc(Cl)cc2)[C@@H](O)[C@H]1O`, the logD in the series “physchem” was found to be 2.5. In the series “in vitro [1]”, this molecule had a fraction unbound at 5 h of 0.0836. In “in vitro [2]” (liver microsomes), this molecule had a microsomal CLint of 21.4 µL/min/mg. The molecule further came in with an intrinsic metabolic clearance (hepatocyte CLint) in the series “in vitro [3]” of 93.3 µL/min/1e6 cells.
The molecule `CC(C)N(CCCNC(=O)Nc1ccc(C(C)(C)C)cc1)C[C@H]1O[C@@H](n2cnc3c(N)ncnc32)[C@H](O)[C@@H]1O` yielded a logD in the series “physchem” of 2.2. In “in vitro [1]”, this molecule gave an unbound share (fraction unbound) at 5 h of 0.285. For the same molecule, the microsomal CLint in the series “in vitro [2]” (liver microsomes) was 112 µL/min/mg. For the same molecule, in “in vitro [3]”, the hepatocyte CLint was 26.9 µL/min/1e6 cells.
In the series “physchem”, `C=CC(=O)Nc1cccc(CN2C(=O)N(c3c(Cl)c(OC)cc(OC)c3Cl)Cc3cnc(NCCCCN(CC)CC)nc32)c1` yielded a logD of 2.04. The fraction unbound at 5 h in “in vitro [1]” was 0.02. The molecule also gave a microsomal CLint in “in vitro [2]” (liver microsomes) of 87.1 µL/min/mg. For the same molecule, the hepatocyte CLint in the series “in vitro [3]” worked out at 39.8 µL/min/1e6 cells.
For the molecule `COc1cc(O)c(C(CC(=O)N2CC(C)CC(C)C2)c2ccc3c(c2)OCO3)c(OC)c1` (configuration not stated), the logD in the series “physchem” came to 4.3. This molecule showed a fraction unbound at 5 h in the series “in vitro [1]” of 0.0024. In the series “in vitro [2]” (microsomes), this molecule showed a microsomal CLint of more than 150 µL/min/mg. The molecule further registered a hepatocyte CLint in “in vitro [3]” of more than 150 µL/min/1e6 cells.
As for `O=C(CSc1nc2c(c(=O)n1-c1ccccc1)SCC2)Nc1ccc(-c2ccccc2)cn1`, the fraction unbound at 5 h in “in vitro [1]” was 0.0017. Moreover, in “in vitro [2]” (microsomes), the microsomal CLint was more than 150 µL/min/mg. The same molecule returned a hepatocyte CLint in the series “in vitro [3]” of more than 150 µL/min/1e6 cells.
In the case of `O=C(CSc1nc2c(c(=O)n1-c1ccccc1)SCC2)Nc1ncc(-c2ccccc2)s1`, the fraction unbound at 5 h in the series “in vitro [1]” was 0.0023. The microsomal CLint in “in vitro [2]” (liver microsomes) was more than 150 µL/min/mg. Also, the hepatocyte CLint in “in vitro [3]” came out at 129 µL/min/1e6 cells.
Turning to `CC(=O)Nc1nc(CCc2ccc(NC(=N)N)cc2)cs1`, the logD in “physchem” was -0.82. In the series “in vitro [1]”, this molecule showed an unbound share (fraction unbound) at 5 h of 0.465. This molecule also gave a microsomal CLint in the series “in vitro [2]” (liver microsomes) of 3.98 µL/min/mg. This molecule displayed a hepatocyte CLint in the series “in vitro [3]” of 12.9 µL/min/1e6 cells.
For `C[C@@H](NC(=O)C1CCNCC1)c1ccc(Nc2ncc3cc(-c4ccncc4)ccc3n2)cc1` the same measures were 0.4, 0.0477, 4.17 µL/min/mg and less than 3 µL/min/1e6 cells.
`CCc1[nH]c2nc(Sc3cnc4ccc[n+]([O-])c4c3)nc(N3C[C@@H]4[C@@H](N)[C@@H]4C3)c2c1Cl`: in “physchem”, the logD was 2.3. In addition, the fraction unbound at 5 h in the series “in vitro [1]” was 0.0661. Further, the microsomal CLint in the series “in vitro [2]” (microsomes) stood at 33.9 µL/min/mg. Also, the hepatocyte CLint in the series “in vitro [3]” was found to be 58.9 µL/min/1e6 cells.
In “physchem”, `CNc1nc(C)c(-c2nc(Nc3cccc(N4CCNCC4)c3)ncc2C#N)s1` gave a logD of 1.9. Moreover, the free fraction (fraction unbound) at 5 h in the series “in vitro [1]” was 0.139. Moreover, in the series “in vitro [2]” (microsomes), the microsomal CLint was 17.8 µL/min/mg. The molecule also registered a hepatocyte CLint in the series “in vitro [3]” of 12.3 µL/min/1e6 cells.
In the series “in vitro [1]”, `CNc1nc(C)c(-c2nc(Nc3cccc(N4CCCCC4)c3)ncc2C#N)s1` showed a fraction unbound at 5 h of 0.0019. For the same molecule, the microsomal CLint in the series “in vitro [2]” (liver microsomes) came to 95.5 µL/min/mg. This molecule yielded a hepatocyte CLint in “in vitro [3]” of more than 150 µL/min/1e6 cells.
As to `CC(C)C(=O)Nc1nc(-c2ccccn2)cc2ccccc12`, in the series “physchem”, the pH-dependent lipophilicity (logD) came to 2.7. The same molecule showed a fraction unbound at 5 h in “in vitro [1]” of 0.0245. The molecule further displayed a microsomal CLint in “in vitro [2]” (liver microsomes) of 105 µL/min/mg. The intrinsic metabolic clearance (hepatocyte CLint) in the series “in vitro [3]” amounted to 61.7 µL/min/1e6 cells.
In the series “physchem”, `Clc1cccc(-c2cnc3ccc(NC4CCOCC4)nn23)c1` returned a logD of 4.3. The same molecule had a fraction unbound at 5 h in “in vitro [1]” of 0.009. In “in vitro [2]” (liver microsomes), this molecule showed a microsomal CLint of 9.12 µL/min/mg. This molecule gave a hepatocyte CLint in “in vitro [3]” of 14.8 µL/min/1e6 cells.
For `CCOc1nc2ccc(OCCC3CCN(c4ccc(C)nn4)CC3)cc2o1`, in “in vitro [1]”, the fraction unbound at 5 h is 0.0028. In addition, the microsomal CLint in the series “in vitro [2]” (liver microsomes) came out at 6 µL/min/mg. In “in vitro [3]”, this molecule yielded a hepatocyte CLint of 4 µL/min/1e6 cells.
On to `CN[C@@H](C)C(=O)N[C@H](C(=O)N1CC[C@H]2CC[C@H](NC(=O)c3cccc4ccccc34)[C@H]21)C(C)(C)C`, for which, in “physchem”, the logD turned out to be 1.94. In the series “in vitro [1]”, this molecule had a free fraction (fraction unbound) at 5 h of 0.016. The same molecule gave a microsomal CLint in the series “in vitro [2]” (liver microsomes) of 85.1 µL/min/mg. This molecule also registered a hepatocyte CLint in “in vitro [3]” of 12 µL/min/1e6 cells.
Regarding `O=C(O)c1cncc(-c2ccc(Cl)c(C(=O)NCC34CC5CC(CC(C5)C3)C4)c2)c1`, the logD in “physchem” came out at 0.85. Also, the free fraction (fraction unbound) at 5 h in “in vitro [1]” is 0.0099. In addition, the microsomal CLint in “in vitro [2]” (microsomes) amounted to 66 µL/min/mg. Also, the hepatocyte CLint in “in vitro [3]” was determined as 7 µL/min/1e6 cells.
Turning to `CC1N=C(N)N=C(N)N1c1ccc(Cl)cc1` (configuration not stated), the logD in the series “physchem” was -0.8. In “in vitro [1]”, the fraction unbound at 5 h was 0.747. Moreover, the intrinsic metabolic clearance (microsomal CLint) in “in vitro [2]” (liver microsomes) was 3.31 µL/min/mg. The same molecule gave a hepatocyte CLint in “in vitro [3]” of less than 3 µL/min/1e6 cells.
In turn, `CC1(C)S[C@@H]2[C@H](NC(=O)C(C(=O)O)c3ccccc3)C(=O)N2[C@H]1C(=O)O` (some centres not stated) [CARBENICILLIN] had a fraction unbound at 5 h in “in vitro [1]” of 0.546. The molecule also showed a microsomal CLint in “in vitro [2]” (liver microsomes) of 6.92 µL/min/mg. This molecule also registered a hepatocyte CLint in the series “in vitro [3]” of 3.39 µL/min/1e6 cells.
For `COc1cc(C(=O)OCCCCNC(=N)N)cc(OC)c1O` [LEONURINE] the same measures were 0.619, less than 3 µL/min/mg and 138 µL/min/1e6 cells.
